These are literature values, as cited in US20040014652A1, “Tumor activated prodrug compounds and methods of making and using the same” (priority 2000, published 2004).

Data set [1] has as its system tumors. The settings on record: mice.
For data set [2] the following is noted: human, in vivo.

As a reminder, the half-life is the time needed for the level to fall by half in the phase considered. TNFα: in data set [1], the “dose required for tumor regression” value is “approximately 400 μg/kg”. In data set [2], the half-life was 20 min.
